From ChEMBL document CHEMBL1201862, “PubChem BioAssay data set” (2004)
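The compound was tested at five concentrations on cells cultured in 96-well plates, with a 48-hour exposure period. Here, GI50 denotes the concentration required for 50% inhibition of growth.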 Calls of active or inactive are those of the source. Rule as the data show it: active = GI50 up to about 1.1 µM and inactive = higher.

Assays:
Test in all cases: inhibition of tumour cell growth, NCI panel, 48 h
786-0 = system: 786-0
A498 = system: A498
CCRF-CEM = system: CCRF-CEM
EKVX = system: EKVX
HCC 2998 = system: HCC 2998
HT-29 = system: HT-29
IGROV-1 = system: IGROV-1
K562 = system: K562
NCI-H522 = system: NCI-H522
OVCAR-3 = system: OVCAR-3
RPMI-8226 = system: RPMI-8226
SK-MEL-28 = system: SK-MEL-28
SK-MEL-2 = system: SK-MEL-2
SK-MEL-5 = system: SK-MEL-5
SK-OV-3 = system: SK-OV-3
SNB-19 = system: SNB-19
SNB-78 = system: SNB-78
BT-549 = system: BT-549
Hs-578T = system: Hs-578T
T47D = system: T47D

Measured: GI50

CC(=O)c1ccc(-c2ccc(C(C)=O)s2)s1
inactive: 786-0 > 100 µM | A498 1.94 µM | CCRF-CEM > 100 µM | EKVX > 100 µM | HCC 2998 > 100 µM | HT-29 > 100 µM | IGROV-1 > 100 µM | K562 > 100 µM | NCI-H522 > 100 µM | OVCAR-3 > 100 µM | RPMI-8226 > 100 µM | SK-MEL-28 1.81 µM | SK-MEL-2 > 100 µM | SK-MEL-5 > 100 µM | SK-OV-3 > 100 µM | SNB-19 > 100 µM | SNB-78 > 100 µM

Cc1ccc(S(=O)(=O)OC2CS[S+]([O-])CC2OS(=O)(=O)c2ccc(C)cc2)cc1 (configuration not stated)
inactive: 786-0 16.8 µM | A498 16.1 µM | EKVX 21.1 µM | HCC 2998 17.1 µM | HT-29 29.6 µM | IGROV-1 18 µM | K562 4.02 µM | NCI-H522 10.3 µM | OVCAR-3 17.4 µM | RPMI-8226 5.74 µM | SK-MEL-28 15.6 µM | SK-MEL-5 16 µM | SK-OV-3 21.7 µM | SNB-19 17.6 µM | SNB-78 17 µM

CCCNCCCCC(NC(C)=O)C(=O)NCc1ccccc1 (configuration not stated)
inactive: 786-0 > 100 µM | A498 > 100 µM | CCRF-CEM > 100 µM | EKVX > 100 µM | HCC 2998 > 100 µM | HT-29 > 100 µM | IGROV-1 > 100 µM | K562 > 100 µM | NCI-H522 > 100 µM | OVCAR-3 > 100 µM | RPMI-8226 > 100 µM | SK-MEL-28 > 100 µM | SK-MEL-2 > 100 µM | SK-MEL-5 > 100 µM | SK-OV-3 > 100 µM | SNB-19 > 100 µM | SNB-78 > 100 µM

O=[N+]([O-])c1cccc(/C=N/C23CC4CC(CC(C4)C2)C3)c1
inactive: 786-0 > 100 µM | A498 > 100 µM | CCRF-CEM 25.1 µM | EKVX > 100 µM | HCC 2998 > 100 µM | HT-29 > 100 µM | IGROV-1 > 100 µM | K562 29.7 µM | NCI-H522 > 100 µM | OVCAR-3 > 100 µM | RPMI-8226 > 10 µM | SK-MEL-28 > 100 µM | SK-MEL-2 > 100 µM | SK-MEL-5 70.8 µM | SK-OV-3 > 100 µM | SNB-19 > 100 µM | SNB-78 > 100 µM

CSC(C1c2ccccc2N(c2ccc(C)cc2)C2=NC(=O)N(C)C(=O)C21Cl)S(=O)(=O)c1ccc(C)cc1 (configuration not stated)
inactive: 786-0 18.5 µM | A498 33 µM | CCRF-CEM 10.8 µM | EKVX 35.4 µM | HCC 2998 20.4 µM | HT-29 26.2 µM | IGROV-1 33.3 µM | K562 19.1 µM | NCI-H522 13.4 µM | OVCAR-3 13.2 µM | RPMI-8226 16 µM | SK-MEL-28 21 µM | SK-MEL-2 18.8 µM | SK-MEL-5 17.3 µM | SK-OV-3 42.1 µM | SNB-19 26.4 µM | SNB-78 27.9 µM

Cc1nc2ccccc2[s+]c1-c1cnc(NC#N)nc1C(=O)Nc1cccc(Cl)c1
inactive: 786-0 > 100 µM | A498 > 100 µM | CCRF-CEM > 100 µM | EKVX > 100 µM | HCC 2998 > 100 µM | HT-29 > 100 µM | IGROV-1 > 100 µM | K562 > 100 µM | NCI-H522 > 100 µM | OVCAR-3 > 100 µM | RPMI-8226 > 100 µM | SK-MEL-28 > 100 µM | SK-MEL-2 > 100 µM | SK-MEL-5 > 100 µM | SK-OV-3 > 100 µM | SNB-19 > 100 µM | SNB-78 > 100 µM

C=C(C(=C)P(=S)(C(C)C)C(C)C)P(=S)(C(C)C)C(C)C
inactive: 786-0 > 100 µM | A498 > 100 µM | CCRF-CEM > 100 µM | EKVX > 100 µM | HCC 2998 > 100 µM | HT-29 > 100 µM | IGROV-1 > 100 µM | K562 > 100 µM | NCI-H522 > 100 µM | OVCAR-3 > 100 µM | RPMI-8226 > 100 µM | SK-MEL-28 > 100 µM | SK-MEL-5 > 100 µM | SK-OV-3 > 100 µM | SNB-19 > 100 µM | SNB-78 > 100 µM

CS(=O)(=O)CS(=O)(=O)OCCCl
inactive: 786-0 61.2 µM | A498 527 µM | BT-549 99.5 µM | CCRF-CEM 47 µM | EKVX 366 µM | HCC 2998 301 µM | HT-29 427 µM | Hs-578T 272 µM | IGROV-1 252 µM | K562 216 µM | NCI-H522 206 µM | OVCAR-3 264 µM | RPMI-8226 198 µM | SK-MEL-28 490 µM | SK-MEL-2 304 µM | SK-MEL-5 211 µM | SK-OV-3 167 µM | SNB-19 96.4 µM | SNB-78 96.8 µM | T47D 218 µM

O=C(N/C(=C\c1ccc(/C=C(\NC(=O)c2ccccc2)c2nc3ccccc3[nH]2)cc1)c1nc2ccccc2[nH]1)c1ccccc1
inactive: 786-0 > 100 µM | A498 > 100 µM | CCRF-CEM > 100 µM | EKVX > 100 µM | HCC 2998 > 100 µM | HT-29 > 100 µM | IGROV-1 > 100 µM | K562 > 100 µM | NCI-H522 > 100 µM | OVCAR-3 > 100 µM | RPMI-8226 > 100 µM | SK-MEL-28 > 100 µM | SK-MEL-2 > 100 µM | SK-MEL-5 > 100 µM | SK-OV-3 > 100 µM | SNB-19 > 100 µM | SNB-78 > 100 µM

O=C(/C=C/c1ccc(Cl)cc1)c1ccncc1
inactive: 786-0 76.2 µM | A498 27 µM | CCRF-CEM 43.7 µM | EKVX 64.4 µM | HCC 2998 40.4 µM | HT-29 22.3 µM | IGROV-1 48.2 µM | K562 52.2 µM | NCI-H522 64.9 µM | OVCAR-3 40.8 µM | RPMI-8226 89.3 µM | SK-MEL-28 52.6 µM | SK-MEL-2 > 100 µM | SK-MEL-5 53.2 µM | SK-OV-3 > 100 µM | SNB-19 98.4 µM | SNB-78 > 100 µM

N#CC(C(=O)C(=O)C(C#N)c1ccc(Br)cc1)c1ccc(Br)cc1 (configuration not stated)
inactive: 786-0 12.9 µM | A498 15.8 µM | CCRF-CEM 4.47 µM | EKVX 12 µM | HCC 2998 12 µM | HT-29 8.59 µM | IGROV-1 15.6 µM | K562 12.6 µM | OVCAR-3 9.38 µM | RPMI-8226 4.65 µM | SK-MEL-28 14.6 µM | SK-MEL-2 13.9 µM | SK-MEL-5 14.4 µM | SK-OV-3 15.7 µM | SNB-19 17 µM | SNB-78 12.2 µM

NC(=O)c1csc(C2C=CC(CO)O2)n1 (configuration not stated)
inactive: 786-0 > 100 µM | A498 > 100 µM | CCRF-CEM > 100 µM | EKVX > 100 µM | HCC 2998 > 100 µM | HT-29 > 100 µM | IGROV-1 > 100 µM | K562 > 100 µM | NCI-H522 > 100 µM | OVCAR-3 > 10 µM | RPMI-8226 > 100 µM | SK-MEL-28 > 100 µM | SK-MEL-2 > 100 µM | SK-OV-3 > 100 µM | SNB-19 > 100 µM | SNB-78 > 100 µM
